Data reported in paper PMC6218639, “The calcium sensitizer drug MCI-154 binds the structural C-terminal domain of cardiac troponin C” (Biochemistry and Biophysics Reports, 2018).

Target: T1, cardiac troponin C (cTnC) (Homo sapiens, UniProt P63316, C35S/C84S)
T1 construct: gene TNNC1; cTnC residues 1–161
Test: 2D 1H, […]-HSQC NMR titration (KD […]), confirmed by ITC
Format: binding

Kd: 500 ± 100 µM
Structure (SMILES): O=C1CCC(c2ccc(Nc3ccncc3)cc2)=NN1 [MCI-154, 6-(4-(pyridin-4-ylamino)phenyl)-4,5-dihydropyridazin-3(2H)-one]
